Source: patent US20180207294A1, “NON-ALCOHOLIC FATTY LIVER REGULATING FACTOR 14-3-3 PROTEIN” (Korea University Research and Business Foundation, priority 2015, published 2018)

Legend:
Assay type in all cases: cell-based
[1] = system: primary mouse hepatocytes; assay: PPARγ2 target gene mRNA (real-time PCR) with 14-3-3 overexpression and oleic acid, primary mouse hepatocytes; details: 14-3-3 overexpression, oleic acid, FIG. 7B
Method: HepG2 cells were seeded in a 6-well plate at a density of 4×10^5 cells per each well, and then transfected with GFP-14-3-3β DNA (4 μg) or GFP-14-3-3γ DNA (4 μg) using an E-fection plus reagent (Lugen). A ratio of DNA to the E-fection plus reagent was 1:2, and this method was performed according to a manufacturer's manual. After transfection, the cells were treated with 200 μM of oleic acid (OA) for 72 hours, and for mRNA extraction, the corresponding cells were lysed with 1 ml/well of TRIzol (Invitrogen), 200 μl of chloroform was added thereto and mixed well, the resultant cells were maintained at room temperature for 5 minutes and then centrifuged at 12,000×g and 4° C. for 15 minutes, the obtained supernatant was mixed with 500 μl of isopropanol and then put on ice for 10 minutes, and the resulting supernatant was centrifuged at 12,000×g and 4° C. for 15 minutes to remove a supernatant, and then pellets were dissolved with tertiary distilled water treated with diethyl pyrocarbonate (DEPC). 2 μg of mRNA was synthesized into cDNA using a Superscript First Strand cDNA Synthesis Kit (Bioneer, Daejeon, South Korea) and the synthesized cDNA as a template was amplified through polymerase chain reaction (PCR) using primers specific to PPARγ2 (SEQ ID NOS: 1 and 2), 14-3-3β (SEQ ID NOS: 3 and 4), 14-3-3γ (SEQ ID NOS: 5 and 6), SREBP-1c, FAT/CD36, and β-actin of humans, and was amplified through real-time PCR using primers specific to SREBP-1c, FAT/CD36, and GAPDH of mice. β-actin and GAPDH were used as controls to see whether mRNAs of the respective cells were compared in the same amount.

FAT/CD36 promoter = assay: Chromatin immunoprecipitation (ChIP) of PPARγ2 on FAT/CD36 promoter, HepG2 cells; details: overexpression of 14-3-3β / 14-3-3γ, FIG. 7C upper side
Method: In addition, for chromatin immunoprecipitation (ChIP), HepG2 cells were seeded in a 100 mm plate at a density of 4×10^6 cells per each well, and then transfected with Flag-PPARγ2 DNA (4 μg), mGST-14-3-3β DNA (4 μg) or mGST-14-3-3γ DNA (4 μg), and si-14-3-3β (20 μM, Santa Cruz) or si-14-3-3γ (20 μM, Santa Cruz) using an E-fection plus reagent (Lugen). A ratio of DNA to the E-fection plus reagent was 1:2, and this method was performed according to a manufacturer's manual. The corresponding cells were treated with 0.75% formaldehyde at room temperature for 15 minutes, glycine was added thereto, and the resulting cells were scraped into ice-cold PBS and centrifuged at 1,000×g and 4° C. for 3 minutes to remove a supernatant, pellets were dissolved with 400 μl of FA lysis buffer (50 mM HEPES, 150 mM NaCl, 2 mM EDTA pH8.0, 1% Triton-X100, 0.1% NaDeoxycholate), and then lysed using a sonicator twice for 10 minutes at a high voltage under the following condition: lysis for […] and resting for 30 seconds. […]
In addition, the binding of PPARγ2 and a binding strength thereof according to the expression of 14-3-3β and 14-3-3γ were evaluated by ChIP assay using a PPAR response element (PPRE) known as a binding site of PPARγ2 present in the FAT/CD36 promoter. […]

SREBP-1c protein = SREBP-1c protein expression by western blotting, HepG2 cells; details: 14-3-3 overexpression, 200 μM oleic acid 72 hours, FIG. 7D
Method: In addition, HepG2 cells were seeded in a 6-well plate at a density of 5×10^5 cells per each well, and then transfected with HA-14-3-3β DNA (1 μg) or HA-14-3-3γ DNA (1 μg) using an E-fection plus reagent (Lugen). A ratio of DNA to the E-fection plus reagent was 1:2, and this method was performed according to a manufacturer's manual. After transfection, the cells were treated with 200 μM of oleic acid (OA) for 72 hours, washed with ice-cold PBS, and lysed with 80 μl/well of a lysis buffer (150 mM NaCl, 1 mM EDTA, 1% Nonidet P-40, 5% glycerol, 25 mM tris-HCl, pH 7.5, protease inhibitor added), the lysed cells were centrifuged at 10,000×g and 4° C. for 10 minutes to extract proteins, and 30 μg of the proteins was separated on a 10% SDS-PAGE gel and identified using each of the antibodies (HA, SREBP-1c: Santa Cruz) by western blotting, and all antibodies were used in a ratio of 1:3000. To verify whether such regulation of mRNA expression of the target genes of PPARγ2 is the same as in the expression of a protein thereof, an expression amount of the SREBP-1c protein was checked by western blotting. As a result of the experiment, it was confirmed that the expression of the SREBP-1c protein was increased by the overexpression of 14-3-3β and reduced by the overexpression of 14-3-3γ (see FIG. 7D).

HepG2 cells = assay: Oil Red-O lipid accumulation, HepG2 cells; details: 14-3-3 overexpression, 200 μM oleic acid 72 hours, FIG. 9B
Method: (§1) HepG2 cells and primary mouse hepatocytes were separately seeded in a 6-well plate at a density of 4×10^5 cells per each well, and then transfected with GFP-14-3-3β DNA (1 μg) or GFP-14-3-3γ DNA (1 μg) and si-14-3-3β (10 μM, Santa Cruz) or si-14-3-3γ (10 μM, Santa Cruz) using an E-fection plus reagent (Lugen). A ratio of DNA to the E-fection plus reagent was 1:2, and this method was performed according to a manufacturer's manual. […] The stained cells were bleached with 1 ml of isopropanol and analyzed at a wavelength of 550 nm using a DU530 spectrophotometer (Beckman Instruments, Palo Alto, Calif.).

[2] = system: primary mouse hepatocytes; assay: Oil Red-O lipid accumulation, primary mouse hepatocytes; details: 14-3-3 overexpression, 200 μM oleic acid 72 hours, FIG. 9B
Method: as §1

With “14-3-3β: 14-3-3 isoform protein, overexpressed by DNA transfection; regulating factor that increases transcriptional activity of PPARγ2” the “mRNA expression of FAT/CD36” value [1] was “further increased”, the “mRNA expression of SREBP-1c” value [1] was “further increased” and the “binding of PPARγ2 to the FAT/CD36 promoter (ChIP)” value (FAT/CD36 promoter) was “increased”. For the same substance, the “expression of the SREBP-1c protein” value (SREBP-1c protein) was “increased”, the “lipid accumulation by oleic acid (Oil Red-O)” value (“lipid accumulation” below) (HepG2 cells) was “increased lipid accumulation” and the “lipid accumulation” value [2] was “increased lipid accumulation”.
“14-3-3γ: 14-3-3 isoform protein, overexpressed by DNA transfection; regulating factor that decreases transcriptional activity of PPARγ2” was tested, and the “mRNA expression of FAT/CD36” value [1] was “reduced”, the “mRNA expression of SREBP-1c” value [1] was “reduced” and the “binding of PPARγ2 to the FAT/CD36 promoter (ChIP)” value (FAT/CD36 promoter) was “inhibited”. For the same substance, the “expression of the SREBP-1c protein” value (SREBP-1c protein) was “reduced”, the “lipid accumulation” value (HepG2 cells) was “reduced lipid accumulation” and the “lipid accumulation” value [2] was “reduced lipid accumulation”.
